# Measurements: patent publication US20070232625A1, “Fungicidal Mixtures” (priority 2004, published 2007)
# Tested on: Alternaria solani
# Assay: Activity against early blight of tomato caused by Alternaria solani (protective spray test on potted tomato plants)
# Type: in vivo
# Conditions: tomato cultivar Golden Princess, evaluated after 5 days
# Description: The active compounds, separately or jointly, were prepared as a stock solution comprising 0.25% by weight of active compound in acetone or DMSO. 1% by weight of the emulsifier Uniperol® EL (wetting agent having emulsifying and dispersant action based on ethoxylated alkylphenols) was added to this solution, and the mixture was diluted with water to the desired concentration.
# Leaves of potted plants of the cultivar “Golden Princess” were sprayed to runoff point with an aqueous suspension having the concentration of active compound stated below. The next day, the leaves were infected with an aqueous spore suspension of Alternaria solani in a 2% strength biomalt solution having a density of 0.17×10^6 spores/ml. The plants were then placed in a water-vapor-saturated chamber at temperatures between 20 and 22° C. After 5 days, the disease on the untreated but infected control plants had developed to such an extent that the infection could be determined visually in %.
# The visually determined percentages of infected leaf areas were converted into efficacies in % of the untreated control:
# The efficacy (E) is calculated as follows using Abbot's formula: E=(1−α/β)·100 • α corresponds to the fungal infection of the treated plants in % and • β corresponds to the fungal infection of the untreated (control) plants in %
# An efficacy of 0 means that the infection level of the treated plants corresponds to that of the untreated control plants; an efficacy of 100 means that the treated plants were not infected.
# The expected efficacies of mixtures of active compounds were determined using Colby's formula (Colby, S. R. “Calculating synergistic and antagonistic responses of herbicide combinations”, Weeds, 15, 20-22, 1967) and compared with the observed efficacies.
# Colby's formula: E=x+y−x·y/100 • E expected efficacy, expressed in % of the untreated control, when using the mixture of the active compounds A and B at the concentrations a and b • x efficacy, expressed in % of the untreated control, when using the active compound A at the concentration a
# y efficacy, expressed in % of the untreated control, when using the active compound B at the concentration b
Structure (SMILES),Efficacy in % of the untreated control (1 ppm active compound in the spray liquor),Efficacy in % of the untreated control (6.25 ppm active compound in the spray liquor),Efficacy in % of the untreated control (1.25 ppm active compound in the spray liquor),"Efficacy in % of the untreated control (5 ppm active compound in the spray liquor, infected next day)"
"CO/N=C(\Cc1cccnc1)c1cc(Cl)cc(Cl)c1 [II (pyrifenox), 1-(3,5-dichlorophenyl)-2-pyridin-3-ylethanone-O-methyloxime]",0%,0%,,
"CC1CCN(c2c(-c3c(F)cc(F)cc3F)c(Cl)nc3ncnn23)CC1 [I, 5-chloro-7-(4-methylpiperidin-1-yl)-6-(2,4,6-trifluorophenyl)-[1,2,4]triazolo[1,5-a]pyrimidine]",,,0%,22%
